Measured values as given in PMC11940214, “The Antimicrobial Peptide D-CONGA-Q7 Eradicates Drug-Resistant E. coli by Disrupting Bacterial Cell Membranes” (Biology, 2025).
In brackets after ≈: the same amount, converted by molar mass. Where a SMILES comes first, the peptide text is derived from it. [ ]: non-standard residue; d: D form.

Key:
[1] = test system: E. coli LN175 (mcr-1,NDM); type: cell-based, Escherichia coli
Experimental: (§1) The bacterial strains used in this study, including LN175, J27ab-2, K88, AD21R, and 21f54mr-1, were E. coli obtained from the Hunan Veterinary Engineering Research Center (Changsha, Hunan Province). Except for K88, all the strains were multidrug-resistant and carried multiple resistance genes, while K88 was a diarrhea-causing strain containing the ETEC gene.
(§2) The bacterial concentration was adjusted to 1 × 10^5 CFU/mL using a turbidimeter. Then, 100 μL of Mueller–Hinton Broth (MHB) broth was added to wells 1–11 of a 96-well plate, while 200 μL was added to well 12. Then, 100 μL of the drug was added to wells 1–11, which was followed by 100 μL of the bacterial suspension. Results were observed after incubation at 37 °C for 16–24 h.

[2] = test system: multidrug-resistant E. coli strains; type: cell-based, Escherichia coli
Experimental: as §1, §2

in vitro = type: cell-based, porcine; details: pig
Experimental: Porcine small intestinal epithelial cells (IPEC-J2) were cultured in DMEM-F12 medium supplemented with 10% fetal bovine serum (TransGen Biotech, Beijing, China) and 1% penicillin–streptomycin (Beyotime Biotechnology, Shanghai, China). The cells were maintained in a humidified incubator at 37 °C with 5% CO2. Cells were passaged using 0.25% trypsin solution containing ethylenediaminetetraacetic acid (EDTA). Cells were seeded into 96-well plates at a density of 1 × 10⁴ cells per well. After 48 h, they were treated with varying concentrations of D-CONGA-Q7 and incubated with CCK-8 (Beyotime Biotechnology, Shanghai, China) for 1 h. The assay was measured using a […].

[3] = test system: E. coli strain LN175, K88, J27ab-2; experiment: Thermal and acid-base stability, read out as change in MIC; type: physicochemical, Escherichia coli; details: 1.024 mg/mL solution, then adjusted back
Experimental: For thermal stability, the D-CONGA-Q7 was prepared as a 1.024 mg/mL solution and heated in a water bath at room temperature, 60, 65, 70, 75, 80, 90 and 100 °C for 1 h, and autoclaved at 121 °C for 15 min and then cooled to room temperature, respectively. Acid–base stability, 1.024 mg/mL of D-CONGA-Q7 solution was used to adjust its pH to 2–12 using HCl and NaOH, and the pH of each tube was adjusted back to the initial tube pH after 1 h. The adjustment of solution pH = 3.89 (pH = 3.89 is the pH of D-CONGA-Q7 itself when dissolved) included the above use of the untreated samples as a control.
The antimicrobial activity of D-CONGA-Q7 was evaluated by assessing changes in its MIC against strain LN175, K88, J27ab-2.

erythrocyte = details: cited from earlier work
Description: D-CONGA was originally screened from a library of 28,000 peptides using high-throughput synthesis principles and host cell compatibility. […] This study explored the antimicrobial mechanis ...

In the case of CC(C)C[C@@H](NC(=O)[C@@H](CCC(N)=O)NC(=O)[C@@H](CCCNC(=N)N)NC(=O)[C@@H](CCCNC(=N)N)NC(=O)[C@@H](C)NC(=O)[C@@H](Cc1c[nH]c2ccccc12)NC(=O)[C@@H](CCCNC(=N)N)NC(=O)[C@H](N)CCCNC(=N)N)C(=O)N[C@H](C)C(=O)N[C@H](Cc1ccccc1)C(=O)N[C@H](C)C(=O)N[C@H](Cc1ccccc1)C(=O)N[C@H](CCCNC(=N)N)C(=O)N[C@H](CCCNC(=N)N)C(N)=O [D-CONGA-Q7] (H-[dR][dR][dW][dA][dR][dR][dQ][dL][dA][dF][dA][dF][dR][dR]-NH2), the MIC [1] is reported as 4 µg/mL (≈ 2.12 µM), the “MIC values for all strains tested” value [2] is reported as “less than or equal to 4 μg/mL” and the IC50 (in vitro) is reported as 188 µg/mL (≈ 99.8 µM). The “antimicrobial activity after exposure to pH 12 (acid-base stability)” value ([3]; pH 12, 1 h, read-out MIC) was “reduction in activity”, the “antimicrobial activity after exposure to pH 2 to 11 (acid-base stability)” value ([3]; pH between 2 and 11 with HCl/NaOH, 1 h, read-out MIC against LN175, K88, J27ab-2) was “retained its antimicrobial activity” and the erythrocyte hemolytic activity (erythrocyte) was “minimal erythrocyte hemolytic activity”.
